Values quoted from earlier work, collected in US7098242B2, “Dihydroartemisinin and dihydroartemisitene dimers as anti-cancer and anti-infective agents” (The University of Mississippi, priority 2002, dated 2006).

Tests used:
[1] = test system: malaria
[2] = test system: chloroquine-sensitive and chloroquine-resistant strains of Plasmodium falciparum

SMILES	activity relative to other artemisinin derivatives [1]	anti-malarial activity [2]
C[C@H]1[C@H](OC(=O)CCC(=O)[O-])O[C@@H]2O[C@@]3(C)CC[C@H]4[C@H](C)CC[C@@H]1[C@@]24OO3.[Na+] [sodium artesunate]	more activity	
C[C@@H]1CC[C@H]2[C@@H](C)C(=O)O[C@@H]3O[C@@]4(C)CC[C@@H]1[C@]32OO4 [artemisinin]		anti-malarial activity against both chloroquine-sensitive and chloroquine-resistant strains
